# Data from US9511058B2, “Methods for using carboxamide, sulfonamide and amine compounds” (Rigel Pharmaceuticals, Inc., priority 2010, dated 2016).
# Target: AMPK
# Assay: AMPK activation, enzyme-linked immunosorbent assay
# Type: biochemical
# Settings: compounds of Table 5 (Table 10)
row,Compound,EC50 [nM]
1,"O=C(NC1CCN(Cc2ccccc2)CC1)c1cc(Cl)c(OC2CCN(Cc3ccc(F)c(F)c3)CC2)c(Cl)c1 [5-76, N-(1-benzylpiperidin-4-yl)-3,5-dichloro-4-(1-(3,4-difluorobenzyl)piperidin-4-yloxy)benzamide]",< 1000
2,"N#Cc1ccc(CN2CCC(Oc3c(Cl)cc(C(=O)NC4CCN(Cc5ccccc5)CC4)cc3Cl)CC2)cc1 [5-77, N-(1-benzylpiperidin-4-yl)-3,5-dichloro-4-(1-(4-cyanobenzyl)piperidin-4-yloxy)benzamide]",< 1000
3,"CC(C)(C)OC(=O)N1CCC(NC(=O)c2ccc(OC3CCN(Cc4ccc(C#N)cc4)CC3)cc2)CC1 [5-78, tert-butyl 4-(4-(1-(4-cyanobenzyl)piperidin-4-yloxy)benzamido)piperidine-1-carboxylate]",< 1000
4,"N#Cc1ccc(CN2CCC(Oc3ccc(C(=O)NC4CCNCC4)cc3)CC2)cc1 [5-79, 4-(1-(4-cyanobenzyl)piperidin-4-yloxy)-N-(piperidin-4-yl)benzamide]",> 100000
5,"N#Cc1ccc(CN2CCC(Oc3ccc(C(=O)NC4CCN(Cc5ccncc5)CC4)cc3)CC2)cc1 [5-83, 4-(1-(4-cyanobenzyl)piperidin-4-yloxy)-N-(1-(pyridin-4-ylmethyl)piperidin-4-yl)benzamide]",< 1000
6,"N#Cc1ccc(CN2CCC(Oc3ccc(C(=O)NC4CCN(Cc5ccccn5)CC4)cc3)CC2)cc1 [5-85, 4-(1-(4-cyanobenzyl)piperidin-4-yloxy)-N-(1-(pyridin-2-ylmethyl)piperidin-4-yl)benzamide]",< 1000
7,"O=C(NC1CCN(Cc2ccccc2)CC1)c1cccc(OC2CCN(c3ccccn3)CC2)c1 [5-86, N-(1-benzylpiperidin-4-yl)-3-(1-(pyridin-2-yl)piperidin-4-yloxy)benzamide]",< 1000
8,"O=C(NC1CCN(Cc2ccncc2)CC1)c1cccc(OC2CCN(c3ccc(C(F)(F)F)cc3)CC2)c1 [5-87, N-(1-(pyridin-4-ylmethyl)piperidin-4-yl)-3-(1-(4-(trifluoromethyl)phenyl)piperidin-4-yloxy)benzamide]",< 1000
9,"N#Cc1ccc(N2CCC(Oc3cccc(C(=O)NC4CCN(Cc5ccncc5)CC4)c3)CC2)cc1 [5-88, N-(1-(pyridin-4-ylmethyl)piperidin-4-yl)-3-(1-(4-cyanophenyl)piperidin-4-yloxy)benzamide]",1000 to 10000
10,"N#Cc1cccc(CN2CCC(Oc3cccc(C(=O)NC4CCN(Cc5ccccc5)CC4)c3)CC2)c1 [5-89, N-(1-benzylpiperidin-4-yl)-3-(1-(3-cyanobenzyl)piperidin-4-yloxy)benzamide]",1000 to 10000
11,"CC(C)(C)OC(=O)N1CCC(Oc2ccc(C(=O)NC3CCN(Cc4ccccc4)CC3)cc2Cl)CC1 [5-90, tert-butyl 4-(4-(1-benzylpiperidin-4-ylcarbamoyl)-2-chlorophenoxy)piperidine-1-carboxylate]",1000 to 10000
12,"CC(C)(C)C(=O)N1CCC(Oc2ccc(C(=O)NC3CCN(Cc4ccccc4)CC3)cc2Cl)CC1 [5-91, N-(1-benzylpiperidin-4-yl)-3-chloro-4-(1-pivaloylpiperidin-4-yloxy)benzamide]",< 1000
13,"CC(C)(C)OC(=O)N1CCC(Oc2ccc(C(=O)NC3CCN(Cc4ccccc4)CC3)cc2F)CC1 [5-92, tert-butyl 4-(4-(1-benzylpiperidin-4-ylcarbamoyl)-2-fluorophenoxy)piperidine-1-carboxylate]",1000 to 10000
14,"O=C(NC1CCN(Cc2ccccc2)CC1)c1ccc(OC2CCNCC2)c(Cl)c1 [5-93, N-(1-benzylpiperidin-4-yl)-3-chloro-4-(piperidin-4-yloxy)benzamide]",> 100000
15,"CC(C)(C)OC(=O)NCCCNC(=O)c1ccc(OC2CCN(Cc3ccc(C(F)(F)F)cc3)CC2)cc1 [5-95, tert-butyl 3-(4-(1-(4-(trifluoromethyl)benzyl)piperidin-4-yloxy)benzamido)propylcarbamate]",< 1000
16,"COc1ccc(CN2CCC(Oc3ccc(C(=O)N4CCN(C(=O)OC(C)(C)C)CC4)cc3)CC2)cc1 [5-96, tert-butyl 4-(4-(1-(4-methoxybenzyl)piperidin-4-yloxy)benzoyl)piperazine-1-carboxylate]",1000 to 10000
17,"CC(C)(C)OC(=O)N1CCN(C(=O)c2ccc(OC3CCN(Cc4ccccc4)CC3)cc2)CC1 [5-99, tert-butyl 4-(4-(1-benzylpiperidin-4-yloxy)benzoyl)piperazine-1-carboxylate]",1000 to 10000
18,"O=C(c1ccc(OC2CCN(Cc3ccccc3)CC2)cc1)N1CCN(c2ccccc2)CC1 [5-103, (4-(1-benzylpiperidin-4-yloxy)phenyl)(4-phenylpiperazin-1-yl)methanone]",20000 to 50000
19,"O=C(c1ccc(OC2CCN(Cc3ccccc3)CC2)cc1)N1CCN(Cc2ccccn2)CC1 [5-105, (4-(1-benzylpiperidin-4-yloxy)phenyl)(4-(pyridin-2-ylmethyl)piperazin-1-yl)methanone]",10000 to 20000

# Second part, the molecule after the results:
row,EC50 [nM],Compound
1,< 1000,"Cc1ccc(CN2CCC(Oc3ccc(C(=O)NC4CCN(Cc5ccc(F)cc5)CC4)cc3Cl)CC2)cc1 [5-68, 3-chloro-N-(1-(4-fluorobenzyl)piperidin-4-yl)-4-(1-(4-methylbenzyl)piperidin-4-yloxy)benzamide]"
2,< 1000,"O=C(NC1CCN(Cc2ccccc2)CC1)c1ccc(OC2CCN(Cc3ccc(F)c(F)c3)CC2)c(F)c1 [5-69, N-(1-benzylpiperidin-4-yl)-4-(1-(3,4-difluorobenzyl)piperidin-4-yloxy)-3-fluorobenzamide]"
3,< 1000,"N#Cc1ccc(CN2CCC(Oc3ccc(C(=O)NC4CCN(Cc5ccc(Cl)cc5)CC4)cc3F)CC2)cc1 [5-70, N-(1-(4-chlorobenzyl)piperidin-4-yl)-4-(1-(4-cyanobenzyl)piperidin-4-yloxy)-3-fluorobenzamide]"
4,< 1000,"O=C(NC1CCN(Cc2ccc(Cl)cc2)CC1)c1ccc(OC2CCN(Cc3ccc(F)c(F)c3)CC2)c(F)c1 [5-71, N-(1-(4-chlorobenzyl)piperidin-4-yl)-4-(1-(3,4-difluorobenzyl)piperidin-4-yloxy)-3-fluorobenzamide]"
5,< 1000,"O=C(NC1CCN(Cc2ccc(Cl)cc2)CC1)c1ccc(OC2CCN(Cc3ccc(Cl)cc3)CC2)c(F)c1 [5-72, N-(1-(4-chlorobenzyl)piperidin-4-yl)-4-(1-(4-chlorobenzyl)piperidin-4-yloxy)-3-fluorobenzamide]"
6,< 1000,"Cc1ccc(CN2CCC(Oc3ccc(C(=O)NC4CCN(Cc5ccc(Cl)cc5)CC4)cc3F)CC2)cc1 [5-73, N-(1-(4-chlorobenzyl)piperidin-4-yl)-3-fluoro-4-(1-(4-methylbenzyl)piperidin-4-yloxy)benzamide]"
7,< 1000,"O=C(NC1CCN(Cc2ccccc2)CC1)c1ccc(OC2CCN(Cc3ccc(F)c(F)c3)CC2)c(Cl)c1 [5-74, N-(1-benzylpiperidin-4-yl)-3-chloro-4-(1-(3,4-difluorobenzyl)piperidin-4-yloxy)benzamide]"
8,< 1000,"O=C(NC1CCN(Cc2ccccc2)CC1)c1cc(Cl)c(OC2CCN(Cc3ccc(Cl)cc3)CC2)c(Cl)c1 [5-75, N-(1-benzylpiperidin-4-yl)-3,5-dichloro-4-(1-(4-chlorobenzyl)piperidin-4-yloxy)benzamide]"
9,< 1000,"O=C(NC1CCN(Cc2ccc(Cl)cc2)CC1)c1ccc(OC2CCN(Cc3ccc(Cl)c(Cl)c3)CC2)c(F)c1 [5-80, N-(1-(4-chlorobenzyl)piperidin-4-yl)-4-(1-(3,4-dichlorobenzyl)piperidin-4-yloxy)-3-fluorobenzamide]"
10,< 1000,"N#Cc1ccc(N2CCC(Oc3ccc(C(=O)NC4CCN(Cc5ccc(Cl)cc5)CC4)cc3F)CC2)cc1 [5-81, N-(1-(4-chlorobenzyl)piperidin-4-yl)-4-(1-(4-cyanophenyl)piperidin-4-yloxy)-3-fluorobenzamide]"
11,< 1000,"O=C(NC1CCN(Cc2ccccc2)CC1)c1ccc(OC2CCN(Cc3ccc(Cl)c(Cl)c3)CC2)c(F)c1 [5-82, N-(1-benzylpiperidin-4-yl)-4-(1-(3,4-dichlorobenzyl)piperidin-4-yloxy)-3-fluorobenzamide]"
12,< 1000,"O=C(NC1CCN(Cc2ccccc2)CC1)c1ccc(OC2CCN(Cc3ccc(Cl)c(Cl)c3)CC2)c(Cl)c1 [5-84, N-(1-benzylpiperidin-4-yl)-3-chloro-4-(1-(3,4-dichlorobenzyl)piperidin-4-yloxy)benzamide]"
13,< 1000,"COc1cc(C(=O)NCCCNC(=O)OC(C)(C)C)ccc1OC1CCN(Cc2ccc(C(F)(F)F)cc2)CC1 [5-94, tert-butyl 3-(3-methoxy-4-(1-(4-(trifluoromethyl)benzyl)piperidin-4-yloxy)benzamido)propylcarbamate]"
14,1000 to 10000,"COc1ccc(CN2CCC(Oc3ccc(C(=O)NCCCNC(=O)OC(C)(C)C)cc3Cl)CC2)cc1 [5-97, tert-butyl 3-(3-chloro-4-(1-(4-methoxybenzyl)piperidin-4-yloxy)benzamido)propylcarbamate]"
15,1000 to 10000,COc1cc(C(=O)NCCCN2CCOCC2)ccc1OC1CCN(Cc2ccc(Cl)cc2)CC1 [5-98]
16,1000 to 10000,"O=C(NCCCN1CCOCC1)c1ccc(OC2CCN(Cc3ccc(Cl)cc3)CC2)cc1 [5-100, 4-(1-(4-chlorobenzyl)piperidin-4-yloxy)-N-(3-morpholinopropyl)benzamide]"
17,10000 to 20000,"COc1ccc(CN2CCC(Oc3ccc(C(=O)NCCCN4CCOCC4)cc3Cl)CC2)cc1 [5-101, 3-chloro-4-(1-(4-methoxybenzyl)piperidin-4-yloxy)-N-(3-morpholinopropyl)benzamide]"
18,10000 to 20000,"CC(C)(C)OC(=O)NCCCNC(=O)c1ccc(OC2CCN(Cc3ccccc3)CC2)c(Cl)c1 [5-102, tert-butyl 3-(4-(1-benzylpiperidin-4-yloxy)-3-chlorobenzamido)propylcarbamate]"
19,10000 to 20000,"Cc1ccc(CN2CCC(Oc3ccc(C(=O)NCCCN4CCOCC4)cc3)CC2)cc1 [5-104, 4-(1-(4-methylbenzyl)piperidin-4-yloxy)-N-(3-morpholinopropyl)benzamide]"
